Reference: patent publication US20110183389A1, “PRODUCTION OF LACTIC ACID FROM HEMICELLULOSE EXTRACTS” (priority 2009, published 2011)
Like-named read-outs stand apart in the source and are kept apart here.

Tested on: Bacillus coagulans MXL-9
Conditions: for fermentation time: control consumed xylose within 14 hours; for Ferment Time / Acetic Acid Produced / Ethanol Produced / Formic Acid Produced / Lactic Acid Prod. Rate / Lactic Acid Produced / Lactic Acid Yield / Total Products Yield / Xylose Consumed: pH 6.5, 50° C.
[1] = 30 g/L inhibitor, 20 g/L xylose
[2] = inhibitor conc. 10 g/L, 20 g/L xylose
[3] = inhibitor conc. 20 g/L, 20 g/L xylose
[4] = inhibitor conc. 30 g/L, 20 g/L xylose

Row | SMILES | Ferment Time [2] [h] | Acetic Acid Produced (inhibitor conc. 10 g/L) [g/L] | Ethanol Produced (inhibitor conc. 10 g/L) [g/L] | Formic Acid Produced (inhibitor conc. 10 g/L) [g/L] | Lactic Acid Prod. Rate (inhibitor conc. 10 g/L) [g/L/h] | Lactic Acid Produced (inhibitor conc. 10 g/L) [g/L] | Lactic Acid Yield (inhibitor conc. 10 g/L) [%] | Total Products Yield (inhibitor conc. 10 g/L) [%] | Xylose Consumed (inhibitor conc. 10 g/L) [g/L] | Ferment Time [3] [h] | Acetic Acid Produced (inhibitor conc. 20 g/L) [g/L] | Ethanol Produced (inhibitor conc. 20 g/L) [g/L] | Formic Acid Produced (inhibitor conc. 20 g/L) [g/L] | Lactic Acid Prod. Rate (inhibitor conc. 20 g/L) [g/L/h] | Lactic Acid Produced (inhibitor conc. 20 g/L) [g/L] | Lactic Acid Yield (inhibitor conc. 20 g/L) [%] | Total Products Yield (inhibitor conc. 20 g/L) [%] | Xylose Consumed (inhibitor conc. 20 g/L) [g/L] | Ferment Time [4] [h] | Acetic Acid Produced (inhibitor conc. 30 g/L) [g/L] | also measured
1 | CC(=O)O [HAc, acetic acid] | 17 | 0.0 | 1.0 | 1.1 | 1.0 | 17.3 | 81.0 | 90.7 | 21.4 | 22 | 0.0 | 0.8 | 0.5 | 0.9 | 19.3 | 93.6 | 99.8 | 20.6 | 60 | 0.0 | fermentation time (10 g/L inhibitor): complete in under a day; fermentation time (20 g/L inhibitor): complete in under a day; lag phase [1]: longer lag phase; overall lactic acid yield [1]: not diminished; fermentation time (30 g/L inhibitor): two days; Ethanol Produced (inhibitor conc. 30 g/L): 0.4 g/L; Formic Acid Produced (inhibitor conc. 30 g/L): 0.4 g/L; Lactic Acid Prod. Rate (inhibitor conc. 30 g/L): 0.3 g/L/h; Lactic Acid Produced (inhibitor conc. 30 g/L): 18.5 g/L; Lactic Acid Yield (inhibitor conc. 30 g/L): 91.4%; Total Products Yield (inhibitor conc. 30 g/L): 95.3%; Xylose Consumed (inhibitor conc. 30 g/L): 20.2 g/L
2 | [Na] [Na, sodium] | 32 | 0.8 | 0.0 | 1.3 | 0.6 | 18.8 | 83.1 | 92.4 | 22.4 | 62 | 0.7 | 0.0 | 1.3 | 0.3 | 19.6 | 85.9 | 94.5 | 22.7 | 150 | 0.0 | lag time (20 g/L inhibitor, xylose): increased the lag time; overall product yield (20 g/L inhibitor, xylose): did not affect overall product yield; inhibition of xylose fermentation (30 g/L inhibitor): completely inhibitory; cell growth (30 g/L inhibitor, over the course of 6 days): no cell growth occurred; Ethanol Produced (inhibitor conc. 30 g/L): 0.0 g/L; Formic Acid Produced (inhibitor conc. 30 g/L): 0.0 g/L; Lactic Acid Prod. Rate (inhibitor conc. 30 g/L): 0.0 g/L/h; Lactic Acid Produced (inhibitor conc. 30 g/L): 0.0 g/L; Lactic Acid Yield (inhibitor conc. 30 g/L): 2.6%; Total Products Yield (inhibitor conc. 30 g/L): 2.6%; Xylose Consumed (inhibitor conc. 30 g/L): 0.8 g/L
